Test results taken from US20110195910A1, “USE OF TOCOTRIENOL COMPOSITION FOR THE PREVENTION OF CANCER” (DAVOS LIFE SCIENCE PTE. LTD., priority 2008, published 2011).

Assays:
PC-3 cells [1] = experiment: Flow cytometry and western blotting, PC-3 cells; type: cell-based, human
Experimental: 1.1.3 Flow cytometry—Cell cycle distribution was examined using flow cytometry. Briefly, cells were harvested by trypsinization, fixed in 70% ethanol at 4° C. overnight, and then resuspended in PBS. After incubation at 4° C. for overnight, 2×10^6 cells were incubated with in 20 μg/ml propidium iodide (PI) and 2 mg RNaseA for 15 minutes at 37° C. Cells were then examined by BD SLRII cytometer and the results were analyzed using ModFit software (Becton Dickinson, Mountain View, Calif.). Data were expressed as the percentage of cell cycle distribution in the entire population.
1.1.5 Western blotting—Detailed protocols have been described previously and are known in the art. Briefly, cell lysates were prepared by suspending cell pellets in lysis buffer [50 mmol/l Tris-HCl (pH 8.0), 150 mmol/l NaCl, 1% NP40, 0.5% deoxycholate, 0.1% SDS, 1 mg/ml aprotinin, 1 μg/ml leupeptin and 1 mmol/l phenylmethylsulfonyl fluoride]. For nuclear protein extraction, NucBuster™ protein extraction kit was used. Protein concentration was measured using the DC Protein Assay kit (Bio-Rad, Hercules, Calif.). Equal amount of protein (30 μg) was loaded onto a 10% SDS polyacrylamide gel for electrophoresis and then transferred onto a polyvinylidene difluoride membrane (Amersham, Piscataway, N.J.). The membrane was then incubated with primary antibodies for 1 hr at room temperature against E-cadherin (BD Biosciences, Bedford, Mass.), α-catenin, β-catenin, γ-catenin, Id-1, Id-3, EGFR, phosphor-c-jun, phosphor-ATF2, cleaved PARP, vimentin, α-smooth muscle actin, twist (Santa Cruz Biotechnology, Calif.), phosphor-IkB-alpha (Ser32/36), phosphor-IKK alpha (Seri 80)/IKK beta (Ser181), phosphor-SAPK/JNK (Thr183/Tyr185) G9, SAPK/JNK, NF-kB p65 (5A5) (Cell Signaling Technology Inc, Beverly, Mass.), Snail (Abcam). After incubation with appropriate secondary antibodies, signals were visualized by ECL western blotting system (Amersham, Piscataway, N.J.). Expression of β-actin and histone H1 were assessed as an internal loading control for total cell lysate and nuclear protein lysate respectively.
(§1) 2.1.4 Flow cytometry was carried out as described above under item 1.1.3. Matrigel-invasion assay was carried out as described above under item 1.1.4. Western blotting was carried out as described above under item 1.1.5.

PC-3 cells [2] = experiment: Matrigel-invasion assay, PC-3 cells; type: cell-based, human; conditions: γ-T3 at IC50, 24 hrs
Experimental: 1.1.4 Matrigel-invasion assay—Matrigel-invasion assay was performed according to a previously published method with modifications. Briefly, cells were pre-incubated in a serum-free RPMI 1640 medium with or without γ-T3 isomers for 24 hrs. Cells (2.5×10^5) resuspended in 500 μl of serum-free RPMI 1640 containing 0.1% bovine serum albumin (BSA) were then added to the upper chamber of a 8 μm pore size insert (Millipore, Bedford, Mass.) manually coated with Matrigel (0.5 mg/ml) (BD Bioscience, Bedford, Mass.). Five hundred μl of invasion buffer containing fibronectin (10 μg/ml) and RPMI 1640 supplemented with 10% FCS were added in the lower chamber as a chemo-attractant. Cells were incubated at 37° C. for 24 hrs in 5% CO2 humidified conditions. At the end of incubation period, inserts were stained with Diff-Quick staining solution (Fischer Scientific). Non-invaded cells on the inside of the insert were scraped off with a cotton swab. Cell invasions were then examined by a phase-contrast microscope. The invaded cells were extracted using extraction buffer (Millipore, Bedford, Mass.) and the cell number was estimated based on absorbance at 595 nm.
as §1

[3] = Single acute toxicity test (MTD); type: in vivo, C57BL/6 black mice; conditions: single dose i.p., 30-day observation
Experimental: 4.1.5 Single Acute Toxicity Test—The maximum tolerated dose (MTD) was determined by increasing doses on different groups of mice until the highest dose without any mortality is found. Briefly, ninety C57BU6 black mice (ten for each group) received single dose i.p injection containing 1, 2, 4, 8, 12, 16, 20, 30 and 40 mg of γ-T3 in 100 μl injection volume.

PC-3 cells [4] = experiment: CSC marker and signalling expression in PC-3 cells (western blotting, flow cytometry, RT-PCR); type: cell-based
Experimental: (§2) 5.1.5 Western blotting was carried out as described above under 1.1.5. The membrane was incubated with primary antibodies directed against CD133 (Miltenyi Biotec, Auburn, Calif.), Bcl-2, PARP, cleaved caspase 3, 7, 9 (Cell Signaling, Technology Inc, Beverly, Mass.), CD44 and β-actin (Santa Cruz Biotechnology, Santa Cruz, Calif.). After washing with TBS-T, the membrane was incubated with secondary antibody against either mouse or rabbit IgG and the signals were visualized using ECL plus western blotting system (Amersham, Piscataway, N.J.).
5.1.6 Semi-quantitative RT-PCR—Total RNA was isolated using TRIZOL® reagent (Invitrogen, Carlsbad, Calif.) following the manufacturer's instruction. cDNA was synthesized by using SuperScript First-Strand Synthesis System for RT (Invitrogen, Carlsbad, Calif.) and PCR was carried out with GeneAmp® PCR System 9700 (Applied Biosystems, Foster City, Calif.). The primers sequence and PCR condition for RT-PCR of CD133 were previously described. The amounts of mRNA were quantified relative to GAPDH.
5.1.8 Flow cytometry—Flow cytometry analysis of the CD44 positive cells were performed with procedure known in the art. Briefly, cells were incubated in PBS containing 2% FBS with PE-conjugated anti-human CD44 antibody. Isotype-matched mouse immunoglobulins served as controls. Samples were then analyzed using a FACS Calibur flow cytometer and CellQuest software (BD Biosciences, San Jose, Calif., USA).

PC-3 cells [5] = experiment: Spheroid (prostasphere) formation assay, PC-3 cells; type: cell-based; conditions: 5 μg/ml, untreated average 21 per well
Experimental: 5.1.7 Spheroid formation assay—Spheroid formation assay was performed with a protocol modified from previous study (Folkins C, p3560). Briefly, cells were first trypsinized, washed with 1× PBS and resuspended in DMEM F12 medium. Two hundred cells were added into each well of a 24-well-plate pre-coated with polyHEMA (Sigma, St. Louis, Mo.). Cells will be grown in DMEM/F12 mem (Invitrogen, Carlsbad, Calif.) supplemented with 4 μg/mL insulin (Sigma, St. Louis, Mo.), B27 (Invitrogen, Carlsbad, Calif.), 20 ng/mL EGF (Sigma, St. Louis, Mo.), and 20 ng/mL basic FGF (Invitrogen, Carlsbad, Calif.). Fresh medium with the above supplements was added every day. γ-T3 was added at indicated time points and the number of spheroids was counted at day 14 of the assay or at the end of the treatment. Each experiment was repeated in triplicates and each data point represented the mean and standard derivation.

MGH-U1 cells = experiment: Western blotting of CD44, MGH-U1 cells; type: cell-based; conditions: bladder cancer cells
Experimental: as §2

## CC(C)=CCC/C(C)=C/CC/C(C)=C/CCC1(C)CCc2cc(O)c(C)c(C)c2O1 (stereo not shown) [γ-T3, 7,8-dimethyltocotrienol]
PC-3 cells [1]; PC-3
  E-cadherin and γ-catenin protein expression: up-regulated
  JNK phosphorylation: dosage- and time-dependent increase in JNK phosphorylation activities
  NF-κB p65 activity (nuclear translocation): suppressed constitutive NF-κB p65 activity in a dose-dependent and time-dependent manner
PC-3 cells [1]; PC-3, 24 hrs
  Snail and mesenchymal markers (vimentin, α-SMA and twist) expression: down-regulated
  activation of pro-apoptotic proteins (cleaved products): activation of procaspase 3, 7, 8, 9 as well as PARP
PC-3 cells [1]; PC-3, increasing dosages
  EGF-R expression (Id-1 and Id-3 similar): significantly suppressed to almost undetectable level
PC-3 cells [1]; γ-T3 IC50-95, 24 hrs
  sub-G1 cell population (flow cytometry): induction of sub-G1 cell population
PC-3 cells [2]
  invasion capability compared to untreated control: at least 2.5 -time lower
[3]
  maximum tolerated dose (MTD): 12 mg
PC-3 cells [4]; 5 μg/ml, 24 hrs
  population of CD44+ PC-3 cells (flow cytometry): found to decrease
PC-3 cells [4]; 2.5 and 5 μg/ml, 48 and 72 hrs
  CD133 mRNA level: decrease of CD133 mRNA
PC-3 cells [4]; PC-3, 2.5 & 5 μg/ml, 24, 48 and 72 hours
  protein expression of CD44 (CD133 similar): significantly down regulated
PC-3 cells [4]; low dose, 0 to about 5 μg/ml
  expression of AKT: downregulated
  expression of Oct3/4 and Nestin: upregulated
PC-3 cells [5]
  prostasphere formation: no prostasphere
MGH-U1 cells
  CD44 expression: downregulate CD44 expression
